Data set [1] concerns the target T1, Human recombinant FAP (Homo sapiens, UniProt Q12884).
T1 sequence (Q12884 1-760): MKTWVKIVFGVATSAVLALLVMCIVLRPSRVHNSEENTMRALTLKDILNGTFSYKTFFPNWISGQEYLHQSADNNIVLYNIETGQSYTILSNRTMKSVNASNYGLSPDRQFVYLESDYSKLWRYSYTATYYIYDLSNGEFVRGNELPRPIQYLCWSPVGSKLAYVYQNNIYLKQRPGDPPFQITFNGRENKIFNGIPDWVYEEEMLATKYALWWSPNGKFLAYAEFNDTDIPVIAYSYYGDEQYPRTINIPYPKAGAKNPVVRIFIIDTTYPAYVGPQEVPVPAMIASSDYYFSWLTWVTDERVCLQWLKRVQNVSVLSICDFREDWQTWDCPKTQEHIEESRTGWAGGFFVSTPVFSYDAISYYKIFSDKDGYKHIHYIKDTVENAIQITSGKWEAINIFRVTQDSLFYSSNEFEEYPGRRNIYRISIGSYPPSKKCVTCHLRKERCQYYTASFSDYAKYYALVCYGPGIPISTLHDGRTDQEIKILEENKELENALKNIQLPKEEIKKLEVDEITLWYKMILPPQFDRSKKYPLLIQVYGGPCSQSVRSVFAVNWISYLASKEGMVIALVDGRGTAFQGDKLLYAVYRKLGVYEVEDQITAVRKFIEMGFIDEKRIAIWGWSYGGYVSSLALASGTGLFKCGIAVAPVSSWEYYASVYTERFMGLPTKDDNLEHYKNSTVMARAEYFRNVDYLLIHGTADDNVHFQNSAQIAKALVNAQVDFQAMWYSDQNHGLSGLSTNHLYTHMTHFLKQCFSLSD
Put plainly: FRET-based FAP protease activity assay. The class given is biochemical. Particulars: pIC50 Category (Activity), recombinant human FAP, FRET substrate, 37° C. Also on record: purchased R&D systems 3715-SE.

Data set [2] can be described thus: Plasma stability assay, mouse plasma. The class given is in vitro ADME. Particulars: 37° C., read-out: % intact compound remaining after incubation, Mouse plasma; for remaining at 24 h, 9.8 µM: 24 h incubation.
Data set [3] has as its target T1, Human recombinant FAP. Put plainly: Surface plasmon resonance (Biacore) assay. The class given is binding. Background: Surface plasmon resonance follows binding to a sensor surface in real time, without labels.
In data set [4] the target is T2, recombinant human PREP (Homo sapiens, UniProt P48147).
T2 construct: purchased R&D systems 4308-SE
T2 sequence (P48147 1-710): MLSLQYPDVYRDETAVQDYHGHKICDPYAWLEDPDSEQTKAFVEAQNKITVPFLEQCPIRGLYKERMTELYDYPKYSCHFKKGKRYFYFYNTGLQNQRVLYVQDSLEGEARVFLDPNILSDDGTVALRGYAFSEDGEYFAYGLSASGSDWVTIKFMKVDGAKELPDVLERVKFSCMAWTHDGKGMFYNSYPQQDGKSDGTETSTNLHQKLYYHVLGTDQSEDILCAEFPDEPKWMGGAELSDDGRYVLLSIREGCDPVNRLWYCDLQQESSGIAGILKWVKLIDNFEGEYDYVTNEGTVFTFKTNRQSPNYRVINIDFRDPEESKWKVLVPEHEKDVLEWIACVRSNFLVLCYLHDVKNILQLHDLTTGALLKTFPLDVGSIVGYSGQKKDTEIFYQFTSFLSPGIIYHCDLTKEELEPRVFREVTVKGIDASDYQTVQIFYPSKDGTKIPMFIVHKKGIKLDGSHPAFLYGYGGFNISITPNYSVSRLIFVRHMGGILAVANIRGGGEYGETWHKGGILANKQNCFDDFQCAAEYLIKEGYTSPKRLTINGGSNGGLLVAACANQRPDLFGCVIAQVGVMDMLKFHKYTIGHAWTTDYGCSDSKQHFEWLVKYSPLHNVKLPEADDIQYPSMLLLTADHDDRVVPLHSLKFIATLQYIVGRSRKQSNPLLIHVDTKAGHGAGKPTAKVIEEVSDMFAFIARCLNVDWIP
Put plainly: PREP protease activity assay. The class given is biochemical.

Data set [5] has as its target T3, Recombinant human DPP4 (Homo sapiens, UniProt P27487).
T3 construct: purchased R&D systems 9168-SE
Kind of data set: DPP4 protease activity assay. The class given is biochemical.

Data set [6] has as its target T4, FAP-expressing human WI-38 fibroblasts (Homo sapiens, UniProt Q12884).
T4 construct: FAP-expressing human WI-38 fibroblasts (ECACC) were cultured in EMEM; host or cells: WI-38 human fibroblasts
T4 sequence (Q12884 1-760): T1 sequence (Q12884 1-760)
Put plainly: Competitive FACS binding assay. The note with it: pIC50 Category (FACS), competition with 3 nM Cy5-labeled compound, WI-38 fibroblasts, 4° C., 1 hour. The method, then: Cells were analyzed in an Attune NxT flow cytometer. […]
For orientation: Flow cytometry measures light scatter and fluorescence of single cells or particles in a stream.

Data set [7] in a line: Plasma stability assay, human plasma. The class given is in vitro ADME. The note with it: 24 h incubation, 37° C., read-out: % intact compound remaining after incubation, Human plasma.
Data set [8] is described as follows: in vitro. Particulars: rat, plasma.
Data set [9] addresses KV channel. The note with it: read-out: Ki Ref, reference compound (positive control).

Numbered stars: 1 amine (or outer) side, 2 acyl side, 3 side chain; on linkers, the order of the positions; unused ones are H or OH. Bridge positions count the residues as written; N and C are the ends. Square brackets hold non-standard residues; d marks the D form. Peptide text beside a SMILES is read from it. * marks the point of attachment. TBMB(SCH2CH2NH-DOTA) = O=C(O)CN1CCN(CC(=O)O)CCN(CC(=O)NCCSCc2cc(C[*:1])cc(C[*:2])c2)CCN(CC(=O)O)CC1; X4 = O=C1CN2CCN3CCN(CC(=O)N4CCN(Cc5cc(C[*:1])cc(C[*:2])c5)CC4)CCN(CC2)CC(=O)[O][In]([O]1)[O]C(=O)C3; X2 = O=C(O)CN1CCN(CC(=O)O)CCN(CC(=O)NCCCOCCOCCOCCCN*)CCN(CC(=O)O)CC1; mXylylene = c1cc(C[*:1])cc(C[*:2])c1; Suc = O=C(CCC(=O)[*:2])[*:1]; 4Amb = NCc1ccc(C(=O)O)cc1; Nle = CCCC[C@H](N)C(=O)O; Hexanoyl = CCCCCC(=O)*

T3 sequence (P27487 whole entry): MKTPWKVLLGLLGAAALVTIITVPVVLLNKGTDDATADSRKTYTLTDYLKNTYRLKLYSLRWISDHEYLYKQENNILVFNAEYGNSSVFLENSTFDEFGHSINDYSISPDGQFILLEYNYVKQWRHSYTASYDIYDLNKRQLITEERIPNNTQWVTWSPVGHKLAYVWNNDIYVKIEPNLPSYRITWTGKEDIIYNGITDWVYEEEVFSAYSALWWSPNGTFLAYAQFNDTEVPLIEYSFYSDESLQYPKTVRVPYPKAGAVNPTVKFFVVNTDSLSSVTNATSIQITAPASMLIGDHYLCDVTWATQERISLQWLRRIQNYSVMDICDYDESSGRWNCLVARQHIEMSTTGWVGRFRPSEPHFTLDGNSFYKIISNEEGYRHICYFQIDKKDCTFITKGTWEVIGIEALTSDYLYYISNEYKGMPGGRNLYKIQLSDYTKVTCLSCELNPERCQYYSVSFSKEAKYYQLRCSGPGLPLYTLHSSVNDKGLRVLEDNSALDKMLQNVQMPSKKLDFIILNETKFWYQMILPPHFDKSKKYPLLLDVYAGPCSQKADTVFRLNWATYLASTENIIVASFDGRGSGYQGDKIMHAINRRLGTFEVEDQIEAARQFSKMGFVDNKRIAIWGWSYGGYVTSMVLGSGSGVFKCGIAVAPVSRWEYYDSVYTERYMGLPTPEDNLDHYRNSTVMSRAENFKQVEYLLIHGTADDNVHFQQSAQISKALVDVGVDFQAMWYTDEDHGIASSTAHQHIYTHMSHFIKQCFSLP

Broadly, the IC50 is the midpoint of a concentration-inhibition curve. As a reminder, the share remaining is the share of the starting amount still present when the sample was taken. The Kd is the free concentration of one partner at which half of the binding sites on the other are occupied at equilibrium, for simple one-to-one binding. `CCCC[C@H](NC(=O)CCC(=O)NCCCOCCOCCOCCCNC(=O)CN1CCN(CC(=O)O)CCN(CC(=O)O)CCN(CC(=O)O)CC1)C(=O)N[C@H]1CSCc2cccc(c2)CSC[C@@H](C(=O)N[C@@H](CC(=O)O)C(=O)NCc2ccc(C(=O)N[C@@H](CCCNC(=N)N)C(N)=O)cc2)NC(=O)[C@H](Cc2ccccc2)NC(=O)[C@H](CCC(=O)O)NC(=O)[C@H]([C@@H](C)O)NC(=O)[C@@H]2CCCN2C(=O)[C@@H]2CCCN2C1=O` [3BP-3321, DOTA-Ttds-Nle-[Cys(3MeBn)-Pro-Pro-Thr-Glu-Phe-Cys]-Asp-Pamb-Arg-NH2] ({X2-Suc}-[Nle]CPPTEFCD[4Amb]R-NH2; linker 2-8 via mXylylene): the 50% inhibitory concentration (IC50) was below 10 nM in [1], above 1000 nM in [4], above 1000 nM in [5] and below 10 nM in data set [6]. Besides, in data set [2] (4 h incubation), the share remaining at 4 h, 9.8 µM is 94%. In [3], the Kd is below 10 nM.

For `CCCCCC(=O)N[C@H]1CSCc2cccc(c2)CSC[C@@H](C(=O)N[C@@H](CCCCNC(=O)CN2CCN(CC(=O)O)CCN(CC(=O)O)CCN(CC(=O)O)CC2)CC(=O)O)NC(=O)[C@H](Cc2ccccc2)NC(=O)[C@H](CCC(N)=O)NC(=O)[C@H]([C@@H](C)O)NC(=O)[C@@H]2CCCN2C(=O)[C@@H]2CCCN2C1=O` [3BP-3397, Hex-[Cys(3MeBn)-Pro-Pro-Thr-Gln-Phe-Cys]-Bhk(DOTA)-OH], the IC50 in data set [1] was below 10 nM; in [4], above 1000 nM; in [5], above 1000 nM; in [6], below 10 nM. The share remaining at 24 h, 9.8 µM is 100% in data set [7] and 92% in [2]. Further, in [3], the Kd is below 10 nM.

In the case of `CCCC[C@H](NC(=O)CCC(=O)NCCCOCCOCCOCCCNC(=O)CN1CCN(CC(=O)O)CCN(CC(=O)O)CCN(CC(=O)O)CC1)C(=O)N[C@H]1CSCc2cccc(c2)CSC[C@@H](C(=O)NCCC(=O)O)NC(=O)[C@H](Cc2ccccc2)NC(=O)[C@H](CCC(N)=O)NC(=O)[C@H]([C@@H](C)O)NC(=O)[C@@H]2CCCN2C(=O)[C@@H]2CCCN2C1=O` [3BP-3398, DOTA-Ttds-Nle-[Cys(3MeBn)-Pro-Pro-Thr-Gln-Phe-Cys]-Bal-OH], the IC50 in data set [1] is below 10 nM; in data set [4] it was above 1000 nM; in [5], above 1000 nM; in [6], below 10 nM. The figures for the amount remaining at 24 h, 9.8 µM in data set [7] and in data set [2] were 99% and 94%, respectively. Moreover, the Kd in data set [3] was below 10 nM.

In the case of `CCCCCC(=O)N[C@H]1CSCc2cc(CSCCNC(=O)CN3CCN(CC(=O)O)CCN(CC(=O)O)CCN(CC(=O)O)CC3)cc(c2)CSC[C@@H](C(=O)N[C@@H](CC(=O)O)C(N)=O)NC(=O)[C@H](Cc2ccccc2)NC(=O)[C@H](CCC(N)=O)NC(=O)[C@H]([C@@H](C)O)NC(=O)[C@@H]2CCCN2C(=O)[C@@H]2CCCN2C1=O` [3BP-3426, Hex-[Cys(tMeBn(DOTA-AET))-Pro-Pro-Thr-Gln-Phe-Cys]-Asp-NH2] (Hexanoyl-CPPTQFCD-NH2; linker 1-7 via TBMB(SCH2CH2NH-DOTA)), the half-maximal inhibitory concentration (IC50) is below 10 nM in data set [1], above 1000 nM in data set [4], above 1000 nM in [5] and below 10 nM in data set [6]. Further, the fraction remaining at 24 h, 9.8 µM in data set [2] is 73%. For the same compound, in [3], the dissociation constant (Kd) was below 10 nM.

As for `CCCCCC(=O)N[C@H]1CSCc2cc(cc(CN3CCN(C(=O)CN4CCN5CCN6CCN(CC4)CC(=O)[O][In]([O]C(=O)C6)[O]C(=O)C5)CC3)c2)CSC[C@@H](C(=O)N[C@@H](CC(=O)O)C(N)=O)NC(=O)[C@H](Cc2ccccc2)NC(=O)[C@H](CCC(N)=O)NC(=O)[C@H]([C@@H](C)O)NC(=O)[C@@H]2CCCN2C(=O)[C@@H]2CCCN2C1=O` [3BP-3590, Indium-Complex of Hex-[Cys(tMeBn(DOTA-PP))-Pro-Pro-Thr-Gln-Phe-Cys]-Asp-NH2] (Hexanoyl-CPPTQFCD-NH2; linker 1-7 via X4), the IC50 in [1] and in data set [6] was below 10 nM in each case. Besides, the values for the fraction remaining at 24 h, 9.8 µM in data set [7], in [2] and in data set [8] were 94%, 100% and 100%, respectively. Besides, the Kd in data set [3] was below 10 nM.

`CCCCCC(=O)N[C@H]1CSCc2cc(CSCCNC(=O)CN3CCN4CCN5CCN(CC3)CC(=O)[O][Lu]([O]C(=O)C4)[O]C(=O)C5)cc(c2)CSC[C@@H](C(=O)O)NC(=O)[C@H](Cc2ccccc2)NC(=O)[C@H](CCC(N)=O)NC(=O)[C@H]([C@@H](C)O)NC(=O)[C@@H]2CCCN2C(=O)[C@@H]2CCCN2C1` [3BP-3624, Lutetium-Complex of Hex-[Cys(tMeBn(DOTA-AET))-Pro-Pro-Thr-Gln-Phe-Cys]-OH]: the IC50 in [1] and in data set [6] was below 10 nM in each case. Also, the fraction remaining at 24 h, 9.8 µM in data set [7], in [2] and in data set [8] was 100% in each case. Besides, the Kd in [3] is below 10 nM.

Usually Ki stands for a measure of affinity in units of concentration, obtained from inhibition or displacement. Take alpha-dendrotoxin: the Ki in data set [9] was 0.097 nM.

For the origin of these results see patent US20220315554A1, “COMPOUNDS COMPRISING A […] LIGAND AND USE THEREOF” (priority 2019, published 2022).
